Reference: patent US20160235824A1, “Compositions and Methods for Increasing the Half-Life of Factor XA” (THE CHILDREN'S HOSPITAL OF PHILADELPHIA, priority 2013, published 2016)
Entries after “also recorded” stand apart in the source; their conditions may differ.

Tests used:
[1] = cited from earlier work
[2] = test system: citrated human blood; test: rotational thromboelastography (ROTEM) in whole blood; conditions: 250 nM apixaban alone vs untreated (PBS) control blood
Experimental: FIG. 2 provides a graph of rotational thromboelastograms performed using freshly collected, citrated human blood treated with 25 μg/mL corn trypsin inhibitor (to minimize variation in samples). […] Phosphate buffered saline (PBS) was added to one sample instead of apixaban […].
A coagulation initiator is added, and as the blood clots, rotation of the pin is restricted, which is detected optically by the instrument.

[3] = tail-clip hemostasis experiments in mice; type: in vivo
[4] = target: FXa-antithrombin III (FXa-ATIII) complex (Homo sapiens, UniProt P00742); test: FXa-antithrombin III complex formation in FX deficient plasma (ELISA); type: biochemical; conditions: 100 nM or 1 μM rivaroxaban
[5] = test system: normal human platelet poor plasma (PPP); test: thrombin generation assay (TGA) in platelet poor plasma; type: biochemical

FXa-antithrombin III (FXa-ATIII) complex, sequence (P00742 235-488 limits assumed): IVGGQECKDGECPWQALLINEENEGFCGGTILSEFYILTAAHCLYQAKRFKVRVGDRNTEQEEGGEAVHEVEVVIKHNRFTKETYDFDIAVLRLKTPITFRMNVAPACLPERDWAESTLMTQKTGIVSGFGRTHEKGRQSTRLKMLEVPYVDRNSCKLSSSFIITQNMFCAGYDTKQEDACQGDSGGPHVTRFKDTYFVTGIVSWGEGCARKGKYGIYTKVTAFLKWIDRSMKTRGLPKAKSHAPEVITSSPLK
FXa-antithrombin III (FXa-ATIII) complex, sequence (P00742 41-179 limits assumed): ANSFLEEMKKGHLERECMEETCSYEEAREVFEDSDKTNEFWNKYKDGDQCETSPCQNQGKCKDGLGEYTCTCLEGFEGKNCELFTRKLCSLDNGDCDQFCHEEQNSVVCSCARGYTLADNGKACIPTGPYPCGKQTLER

SMILES | plasma protein binding [1] | effect on clot time [2] | effect on clot time ([2]; listed as Apixaban) | blood loss ([3]; 50 mg/kg rivaroxaban alone) | effect on blood loss ([3]; rivaroxaban alone) | effect on FXa-ATIII complex formation [4] | peak thrombin generation ([5]; 500 nM rivaroxaban alone) | effect on thrombin generation ([5]; 2.5 μM rivaroxaban alone) | effect on thrombin generation ([5]; inhibitor alone added to normal human plasma (PPP))
COc1ccc(-n2nc(C(N)=O)c3c2C(=O)N(c2ccc(N4CCCCC4=O)cc2)CC3)cc1 [apixaban] | heavily protein-bound | prolonged the clot time | prolonged the clot time substantially | – | – | – | – | – | –
O=C(NC[C@H]1CN(c2ccc(N3CCOCC3=O)cc2)C(=O)O1)c1ccc(Cl)s1 [rivaroxaban] | heavily protein-bound | – | – | 217 % of normal | dose-dependently increased blood loss | dose-dependently inhibited | ~10 % of normal | completely abrogated thrombin generation | profoundly decrease thrombin generation; also recorded: dose-dependently inhibited thrombin generation
